These results are taken from ChEMBL document CHEMBL4190168 (Medchemcomm, 2016).

Each structure is given as a SMILES string. pIC50: −log10 of the molar value. A value given as a limit tells only on which side of the number the result lay.

The subject of one data set is EA.hy 926. In words: Antiproliferative activity against human EAhy926 cells after 48 hrs by MTT assay. The class given is functional, cell-based. The note with it: EA.hy 926, 48 h. (Tetrazolium assays rely on reduction of a dye to a coloured formazan, in cell work by metabolically active cells.)
Data set [1] can be described thus: Solubility of the compound in water. The class given is physicochemical.

With `Cc1nc(CNCCCCNCc2cc3c4ccccc4n(C(C)C)c3c(C)n2)cc2c3ccccc3n(C(C)C)c12`, the pIC50 (in general, −log10 of the IC50, conventionally taken in molar units) with EA.hy 926 is 5.89.
As to `Cn1c2ccccc2c2cc(CNCCCCNCc3cc4c5ccccc5n(C)c4c(-c4ccccc4)n3)nc(-c3ccccc3)c21`, the pIC50 in the data set with EA.hy 926 was 5.61.
For `COc1cc(-c2nc(CNCCCCCCNCc3cc4c5ccccc5n(CCCc5ccccc5)c4c(-c4cc(OC)c(OC)c(OC)c4)n3)cc3c4ccccc4n(CCCc4ccccc4)c23)cc(OC)c1OC.Cl`, the solubility (in general, the dissolved amount per volume that the medium holds) in data set [1] is greater than 10 mg/mL.
For `O=Cc1cc2c3ccccc3n(Cc3ccccc3)c2c(-c2ccccc2)n1`, in the data set on EA.hy 926, the pIC50 was less than 4.00.
In turn, `CCCCn1c2ccccc2c2cc(CNCCCCNCc3cc4c5ccccc5n(CCCC)c4c(C(C)C)n3)nc(C(C)C)c21` gave a pIC50 in the data set with EA.hy 926 of 5.62.
With `CCCCn1c2ccccc2c2cc(CNCCCCNCc3cc4c5ccccc5n(CCCC)c4c(-c4ccc(Cl)cc4)n3)nc(-c3ccc(Cl)cc3)c21`, in the data set with EA.hy 926, the pIC50 is 5.31.
In turn, `Cc1nc(CNCCCCNCc2cc3c4ccccc4n(C)c3c(C)n2)cc2c3ccccc3n(C)c12` gave a pIC50 with EA.hy 926 of 5.56.
Still for that read-out and setting: the figure for `Cc1nc(C=O)cc2c3ccccc3n(C)c12` is less than 4.00; for `CC(C)c1nc(CNCCCCCCNCc2cc3c4ccccc4n(Cc4ccccc4)c3c(C(C)C)n2)cc2c3ccccc3n(Cc3ccccc3)c12` it is 5.69; for `CC(C)c1nc(CNCCCCCNCc2cc3c([nH]c4ccccc43)c(C(C)C)n2)cc2c1[nH]c1ccccc12` it is less than 4.70.
Still for that read-out and setting: the figure for `CCCCn1c2ccccc2c2cc(C=O)nc(C)c21` is less than 4.00; for `Cc1nc(CNCCCNCc2cc3c4ccccc4n(Cc4ccccc4)c3c(C)n2)cc2c3ccccc3n(Cc3ccccc3)c12` it is 4.82.
As to `Cn1c2ccccc2c2cc(C=O)nc(-c3ccccc3)c21`, in the data set with EA.hy 926, the pIC50 is less than 4.00.
Same read-out and setting: the figure for `Cc1nc(CNCCCCNCc2cc3c4ccccc4n(CC(C)C)c3c(C)n2)cc2c3ccccc3n(CC(C)C)c12` is 5.59; for `COc1ccc(/C=C\c2cc(OC)c(OC)c(OC)c2)cc1OP(=O)(O)O` [FOSBRETABULIN] it is 5.19.
In the case of `Clc1ccc(-c2nc(CNCCCCCCNCc3cc4c5ccccc5n(Cc5ccccc5)c4c(-c4ccc(Cl)cc4)n3)cc3c4ccccc4n(Cc4ccccc4)c23)cc1`, the pIC50 in the data set with EA.hy 926 is 5.44.
On the same count and under the same terms, the figure for `Cc1nc(CNCCCNCc2cc3c4ccccc4n(CC(C)C)c3c(C)n2)cc2c3ccccc3n(CC(C)C)c12` is 4.93.
Still for that read-out and setting: the figure for `CCn1c2ccccc2c2cc(CNCCCNCc3cc4c5ccccc5n(CC)c4c(-c4cc(OC)c(OC)c(OC)c4)n3)nc(-c3cc(OC)c(OC)c(OC)c3)c21` is 4.87; for `Cc1nc(C=O)cc2c3ccccc3n(CC(C)C)c12` it is less than 4.00.
In turn, `Cn1c2ccccc2c2cc(CNCCCCCCNCc3cc4c5ccccc5n(C)c4c(-c4ccccc4)n3)nc(-c3ccccc3)c21` showed a pIC50 with EA.hy 926 of 5.79.
Compound `CCCCn1c2ccccc2c2cc(CNCCCCNCc3cc4c5ccccc5n(CCCC)c4c(C)n3)nc(C)c21` showed a pIC50 in the data set with EA.hy 926 of 5.77. This pIC50 and that of the compound before are within 0.2 log units of each other.
The compound `Cc1nc(CNCCCNCc2cc3c4ccccc4n(CCCc4ccccc4)c3c(C)n2)cc2c3ccccc3n(CCCc3ccccc3)c12` gave a pIC50 with EA.hy 926 of 5.01.
Still for that read-out and setting: the figure for `CCn1c2ccccc2c2cc(C=O)nc(-c3cc(OC)c(OC)c(OC)c3)c21` is less than 4.00; for `CCCCCCn1c2ccccc2c2cc(CNCCCCCCNCc3cc4c5ccccc5n(CCCCCC)c4c(-c4ccc(OC)cc4)n3)nc(-c3ccc(OC)cc3)c21` it is 5.37; for `Cc1nc(CNCCCCCCNCc2cc3c4ccccc4n(C)c3c(C)n2)cc2c3ccccc3n(C)c12` it is 5.73.
For `CCCCn1c2ccccc2c2cc(C=O)nc(-c3ccc(Cl)cc3)c21`, the pIC50 with EA.hy 926 is less than 4.00.
In the data set on EA.hy 926, `COc1ccc(-c2nc(CNCCCCCNCc3cc4c5ccccc5n(Cc5ccccc5)c4c(-c4ccc(OC)cc4)n3)cc3c4ccccc4n(Cc4ccccc4)c23)cc1` gave a pIC50 of 5.41.
In turn, `Cc1nc(CNCCCNCc2cc3c4ccccc4n(Cc4cccc(Cl)c4)c3c(C)n2)cc2c3ccccc3n(Cc3cccc(Cl)c3)c12` showed a pIC50 in the data set with EA.hy 926 of 4.95.
For the compound `COc1ccc(-c2nc(CNCCCCCCNCc3cc4c5ccccc5n(Cc5ccccc5)c4c(-c4ccc(OC)cc4)n3)cc3c4ccccc4n(Cc4ccccc4)c23)cc1`, the pIC50 with EA.hy 926 is 5.36. This pIC50 is 0.41 log units higher than that of the compound before.
The same measure, in the same setting: to `COc1ccc(-c2nc(C=O)cc3c4ccccc4n(-c4ccccc4)c23)cc1` belongs less than 4.00; to `c1ccc(Cn2c3ccccc3c3cc(CNCCCCCCNCc4cc5c6ccccc6n(Cc6ccccc6)c5c(-c5ccccc5)n4)nc(-c4ccccc4)c32)cc1`, 5.09.
For `O=Cc1cc2c3ccccc3n(Cc3ccccc3)c2c(-c2ccc(Cl)cc2)n1`, the pIC50 with EA.hy 926 was less than 4.00.
Still for that read-out and setting: the figure for `CC(C)c1nc(CNCCCNCc2cc3c4ccccc4n(Cc4ccccc4)c3c(C(C)C)n2)cc2c3ccccc3n(Cc3ccccc3)c12` is 4.87; for `Cc1nc(C=O)cc2c3ccccc3n(Cc3cccc(Cl)c3)c12` it is less than 4.00; for `COc1cc(-c2nc(C=O)cc3c4ccccc4n(CCCc4ccccc4)c23)cc(OC)c1OC` it is less than 4.00.
For the compound `CC(C)c1nc(C=O)cc2c1[nH]c1ccccc12`, the pIC50 with EA.hy 926 was less than 4.00.
Same read-out and setting: the figure for `COc1ccc(-c2nc(CNCCCCNCc3cc4c([nH]c5ccccc54)c(-c4ccc(OC)cc4)n3)cc3c2[nH]c2ccccc23)cc1` is 4.99; for `CCCCCCn1c2ccccc2c2cc(C=O)nc(-c3ccc(OC)cc3)c21` it is less than 4.00; for `COc1ccc(-c2nc(CNCCCCCNCc3cc4c5ccccc5n(C)c4c(-c4ccc(OC)cc4)n3)cc3c4ccccc4n(C)c23)cc1` it is 5.96.
On the same count and under the same terms, the figure for `Cc1nc(C=O)cc2c3ccccc3n(C(C)C)c12` is less than 4.00; for `COc1ccc(-c2nc(C=O)cc3c2[nH]c2ccccc23)cc1` it is less than 4.00.
On the same count and under the same terms, to `Cc1nc(C=O)cc2c3ccccc3n(Cc3ccccc3)c12` belongs less than 4.00.
Turning to `COc1ccc(-c2nc(C=O)cc3c4ccccc4n(C)c23)cc1`, the pIC50 with EA.hy 926 was less than 4.00.
`CCCCn1c2ccccc2c2cc(CNCCCNCc3cc4c5ccccc5n(CCCC)c4c(-c4ccc(Cl)cc4)n3)nc(-c3ccc(Cl)cc3)c21` had a pIC50 in the data set on EA.hy 926 of less than 4.70.
In turn, `Cc1nc(CNCCCCNCc2cc3c4ccccc4n(Cc4ccccc4)c3c(C)n2)cc2c3ccccc3n(Cc3ccccc3)c12` showed a pIC50 in the data set with EA.hy 926 of 5.50.
On to `Clc1ccc(-c2nc(CNCCCCCNCc3cc4c5ccccc5n(Cc5ccccc5)c4c(-c4ccc(Cl)cc4)n3)cc3c4ccccc4n(Cc4ccccc4)c23)cc1`, for which, in the data set with EA.hy 926, the pIC50 is 5.36.
`Cc1nc(C=O)cc2c3ccccc3n(CCCc3ccccc3)c12` showed a pIC50 with EA.hy 926 of less than 4.00.
In the data set with EA.hy 926, `CCCCn1c2ccccc2c2cc(C=O)nc(C(C)C)c21` gave a pIC50 of less than 4.00.
In the data set on EA.hy 926, `c1ccc(Cn2c3ccccc3c3cc(CNCCCNCc4cc5c6ccccc6n(Cc6ccccc6)c5c(-c5ccccc5)n4)nc(-c4ccccc4)c32)cc1` gave a pIC50 of less than 4.70.
In the case of `COc1cc(-c2nc(CNCCCCCCNCc3cc4c5ccccc5n(CCCc5ccccc5)c4c(-c4cc(OC)c(OC)c(OC)c4)n3)cc3c4ccccc4n(CCCc4ccccc4)c23)cc(OC)c1OC`, the pIC50 in the data set on EA.hy 926 was 5.77.
With `COc1ccc(-c2nc(CNCCCCNCc3cc4c5ccccc5n(C)c4c(-c4ccc(OC)cc4)n3)cc3c4ccccc4n(C)c23)cc1`, the pIC50 with EA.hy 926 is 5.53.
The same measure, in the same setting: the figure for `CCCCn1c2ccccc2c2cc(CNCCCCCNCc3cc4c5ccccc5n(CCCC)c4c(C(C)C)n3)nc(C(C)C)c21` is 5.85.
`CC(C)c1nc(C=O)cc2c3ccccc3n(Cc3ccccc3)c12` showed a pIC50 in the data set with EA.hy 926 of less than 4.00.
